From ChEMBL document CHEMBL1158247, “Isolation of Isodrimenediol, a Possible Intermediate of Drimane Biosynthesis from Polyporus arcularius” (1996)
Converted amounts (≈) assume the structure as drawn.

Assays:
[1] = system: Sporobolomyces salmonicolor; assay: Antimicrobial activity against Sporobolomyces salmonicolor 549 by agar diffusion method; assay type: functional
Staphylococcus aureus = assay: Antimicrobial activity against Staphylococcus aureus SG511 by agar diffusion method; assay type: functional

MIC [1]: 5 µg/mL (≈ 21 µM) | MIC (Staphylococcus aureus): 10 µg/mL (≈ 42 µM)
SMILES: C=C1CC[C@H]2C(C)(C)[C@@H](O)CC[C@]2(C)[C@H]1CO [ISODRIMENEDIOL]
